Structures can show the parent of a compound that is named as a salt. Where two headings read alike, the source gives them in different places.
Assays:
[1] = molecular target: T1, SARS-CoV-2 PLpro (nsp3 1564–1878) (Severe acute respiratory syndrome coronavirus 2, UniProt P0DTD1); experiment: biochemical; set-up: FRET-quenched peptide (Pro3) cleavage by PLpro, 10 min pre-incubation, slope over 20 min, normalised to no-compound control; settings: low concentration screen, read-out: % of control remaining
[2] = molecular target: T1, SARS-CoV-2 PLpro (nsp3 1564–1878); experiment: biochemical; set-up: FRET-quenched peptide (Pro3) cleavage by PLpro, 10 min pre-incubation, slope over 20 min, normalised to no-compound control; settings: high concentration screen, read-out: % of control remaining

Compound: COc1ccc2cc1Oc1ccc(cc1)C[C@H]1c3cc(c(OC)cc3CCN1C)Oc1c(OC)c(OC)cc3c1[C@@H](C2)N(C)CC3 [Isotetrandrine]
- remaining activity at 1.25 µM ([1]; Well no.=3365): 100%
- remaining activity at 3.75 µM ([2]; Well no.=3365): 98.1%

Compound: OC[C@H]1O[C@@H](O[C@@H]2[C@@H](CO)OC(O)(CO)[C@H]2O)[C@H](O)[C@@H](O)[C@H]1O (mixture of isomers) [Lactulose]
- remaining activity at 1.25 µM ([1]; Well no.=8140): 95.7%
- remaining activity at 3.75 µM ([2]; Well no.=8140): 97.6%

Compound: C[C@H](N)C(=O)N1C[C@H](CCCB(O)O)[C@](N)(C(=O)O)C1 [CB-1158 (dihydrochloride)]
- remaining activity at 1.25 µM ([1]; Well no.=8743): 100%
- remaining activity at 3.75 µM ([2]; Well no.=8743): 99.3%

Compound: CN1CCN(C2=Nc3ccccc3Sc3ccc(Cl)cc32)CC1 [Clothiapine]
- remaining activity at 1.25 µM ([1]; Well no.=1815): 102%
- remaining activity at 3.75 µM ([2]; Well no.=1815): 99.6%

Compound: Nc1nc(NCCc2ccc(O)cc2)nc2nc(-c3ccco3)nn12 [ZM241385]
- remaining activity at 1.25 µM ([1]; Well no.=7042): 106%
- remaining activity at 1.25 µM ([1]; Well no.=8411): 90.6%
- remaining activity at 3.75 µM ([2]; Well no.=7042): 104%
- remaining activity at 3.75 µM ([2]; Well no.=8411): 88.3%

Compound: C[C@H]1C[C@H]2[C@@H]3CCC4=CC(=O)C=C[C@]4(C)[C@@]3(Cl)[C@@H](O)C[C@]2(C)[C@@]1(O)C(=O)CO [Beclomethasone]
- remaining activity at 1.25 µM ([1]; Well no.=356): 95.3%
- remaining activity at 3.75 µM ([2]; Well no.=356): 100%

Compound: CSC(=N)N [S-Methylisothiourea hemisulfate]
- remaining activity at 1.25 µM ([1]; Well no.=924): 108%
- remaining activity at 3.75 µM ([2]; Well no.=924): 103%

Compound: CN(C)CCC[C@@]1(c2ccc(F)cc2)OCc2cc(C#N)ccc21 [Escitalopram]
- remaining activity at 1.25 µM ([1]; Well no.=1880): 95.4%
- remaining activity at 3.75 µM ([2]; Well no.=1880): 94.3%

Compound: NCCC(=O)N[C@@H](Cc1cnc[nH]1)C(=O)O [L-Carnosine]
- remaining activity at 1.25 µM ([1]; Well no.=7017): 112%
- remaining activity at 3.75 µM ([2]; Well no.=7017): 111%

Compound: CCCc1nc(C(C)(C)O)c(C(=O)OCc2oc(=O)oc2C)n1Cc1ccc(-c2ccccc2-c2nnn[nH]2)cc1 [Olmesartan (medoxomil)]
- remaining activity at 1.25 µM ([1]; Well no.=7579): 98.2%
- remaining activity at 3.75 µM ([2]; Well no.=7579): 92.2%

Compound: Cc1c(C)c2c(c(C)c1O)CCC(C)(C(=O)O)O2 (centres unmarked) [Trolox]
- remaining activity at 1.25 µM ([1]; Well no.=3899): 101%
- remaining activity at 3.75 µM ([2]; Well no.=3899): 99.4%

Compound: CCCCC[C@H](O)/C=C/[C@H]1C=CC(=O)[C@@H]1C/C=C\CCCC(=O)O [Prostaglandin A2]
- remaining activity at 1.25 µM ([1]; Well no.=4467): 100%
- remaining activity at 3.75 µM ([2]; Well no.=4467): 96.3%

Compound: CCCCCCCCCCCCCCCCn1cc[n+](Cc2ccccc2)c1C [eEF-2 Kinase Inhibitor, NH125]
- remaining activity at 1.25 µM ([1]; Well no.=2790): 102%
- remaining activity at 3.75 µM ([2]; Well no.=2790): 108%

Compound: CN1C(=O)N[C@@H](Cc2c[nH]c3c(Cl)cccc23)C1=O [Necrostatin 2 (S enantiomer)]
- remaining activity at 1.25 µM ([1]; Well no.=7166): 97.6%
- remaining activity at 3.75 µM ([2]; Well no.=7166): 94.3%

Compound: CCC(NC(C)C)C(O)c1ccc(O)c2[nH]c(=O)ccc12 (centres unmarked) [Procaterol.HCl]
- remaining activity at 1.25 µM ([1]; Well no.=1745): 99.6%
- remaining activity at 3.75 µM ([2]; Well no.=1745): 101%

Compound: CC[C@H](C)C(=O)O[C@H]1C[C@H](O)C=C2C=C[C@H](C)[C@H](CC[C@@H](O)C[C@@H](O)CC(=O)O)[C@H]21 [Pravastatin sodium]
- remaining activity at 1.25 µM ([1]; Well no.=4889): 96.4%
- remaining activity at 3.75 µM ([2]; Well no.=4889): 96.9%

Compound: O=C(Nc1ccc(CN2CCOCC2)cc1)c1ccc(-c2cccc(Cl)c2)o1 [CID 2011756]
- remaining activity at 1.25 µM ([1]; Well no.=6582): 97.3%
- remaining activity at 3.75 µM ([2]; Well no.=6582): 101%

Compound: Cc1ccc(F)c(NC(=O)Nc2ccc(-c3cccc4[nH]nc(N)c34)cc2)c1 [ABT-869]
- remaining activity at 1.25 µM ([1]; Well no.=2740): 94.6%
- remaining activity at 3.75 µM ([2]; Well no.=2740): 93.3%

Compound: CN1CCc2c(c3ccccc3n2Cc2ccc(C(=O)NO)cc2)C1 [Tubastatin A HCl]
- remaining activity at 1.25 µM ([1]; Well no.=4962): 90.5%
- remaining activity at 3.75 µM ([2]; Well no.=4962): 88.7%

Compound: CCCCNc1cc(C(=O)O)cc(S(N)(=O)=O)c1Oc1ccccc1 [Bumetanide]
- remaining activity at 1.25 µM ([1]; Well no.=29): 103%
- remaining activity at 1.25 µM ([1]; Well no.=1909): 100%
- remaining activity at 3.75 µM ([2]; Well no.=29): 96.8%
- remaining activity at 3.75 µM ([2]; Well no.=1909): 99.1%

Compound: O=C(O)c1cc(=O)cc(C(=O)O)o1 [Chelidonic acid]
- remaining activity at 1.25 µM ([1]; Well no.=6682): 102%
- remaining activity at 3.75 µM ([2]; Well no.=6682): 102%

Compound: COC(=O)[C@@H]1[C@H]2C[C@H]3c4[nH]c5ccccc5c4CCN3C[C@@H]2CC[C@@H]1O [Yohimbine hydrochloride]
- remaining activity at 1.25 µM ([1]; Well no.=1198): 105%
- remaining activity at 3.75 µM ([2]; Well no.=1198): 104%

Compound: O=C1Nc2ccc(I)cc2/C1=C/c1cc(Br)c(O)c(Br)c1 [GW 5074 - 3-(3,5-Dibromo-4-hydroxy-benzylidene)-5-iodo-1,3-dihydro-indol-2-one]
- remaining activity at 1.25 µM ([1]; Well no.=2392): 97.9%
- remaining activity at 3.75 µM ([2]; Well no.=2392): 101%

Compound: CC(=O)NBr [N-Bromoacetamide]
- remaining activity at 1.25 µM ([1]; Well no.=171): 101%
- remaining activity at 3.75 µM ([2]; Well no.=171): 98.1%

Compound: COCCCC/C(=N\OCCN)c1ccc(C(F)(F)F)cc1 [Fluvoxamine maleate]
- remaining activity at 1.25 µM ([1]; Well no.=467): 95.7%
- remaining activity at 3.75 µM ([2]; Well no.=467): 96.4%

Compound: O=C(CCc1ccc(O)cc1)c1c(O)cc(O)cc1O [Phloretin]
- remaining activity at 1.25 µM ([1]; Well no.=1397): 102%
- remaining activity at 1.25 µM ([1]; Well no.=3821): 95.3%
- remaining activity at 3.75 µM ([2]; Well no.=1397): 102%
- remaining activity at 3.75 µM ([2]; Well no.=3821): 94.8%

Compound: Nc1cc(Nc2ccc(S(N)(=O)=O)cc2)ncn1 [PNU112455A]
- remaining activity at 1.25 µM ([1]; Well no.=5446): 100%
- remaining activity at 3.75 µM ([2]; Well no.=5446): 102%

Compound: COc1cc2nc(N3CCN(C(=O)C4CCCO4)CC3)nc(N)c2cc1OC (centres unmarked) [Terazosin (hydrochloride dihydrate)]
- remaining activity at 1.25 µM ([1]; Well no.=7519): 98.6%
- remaining activity at 3.75 µM ([2]; Well no.=7519): 84.5%

Compound: CN1CCC(=C2c3ccccc3CC(=O)c3sccc32)CC1 [Ketotifen (fumarate)]
- remaining activity at 1.25 µM ([1]; Well no.=7421): 100%
- remaining activity at 3.75 µM ([2]; Well no.=7421): 97%

Compound: CN(C)[C@@H]1C(O)=C(C(N)=O)C(=O)[C@@]2(O)C(O)=C3C(=O)c4c(O)cccc4[C@@](C)(O)[C@H]3[C@H](O)[C@@H]12 [Oxytetracycline dihydrate]
- remaining activity at 1.25 µM ([1]; Well no.=4718): 102%
- remaining activity at 3.75 µM ([2]; Well no.=4718): 99.6%

Compound: CO[C@H]1C[C@@H]2CC[C@@H](C)[C@@](O)(O2)C(=O)C(=O)N2CCCC[C@H]2C(=O)O[C@H]([C@H](C)C[C@@H]2CC[C@@H](O)[C@H](OC)C2)CC(=O)[C@H](C)/C=C(\C)[C@@H](O)[C@@H](OC)C(=O)[C@H](C)C[C@H](C)/C=C/C=C/C=C/1C [Rapamycin]
- remaining activity at 1.25 µM ([1]; Well no.=1557): 99.1%
- remaining activity at 1.25 µM ([1]; Well no.=2555): 93.5%
- remaining activity at 1.25 µM ([1]; Well no.=3126): 102%
- remaining activity at 3.75 µM ([2]; Well no.=1557): 97.9%
- remaining activity at 3.75 µM ([2]; Well no.=2555): 91.9%
- remaining activity at 3.75 µM ([2]; Well no.=3126): 106%

Compound: C[C@]12CC[C@@H]3c4ccc(OC(=O)c5ccccc5)cc4CC[C@H]3[C@@H]1CC[C@@H]2O [Estradiol Benzoate]
- remaining activity at 1.25 µM ([1]; Well no.=5134): 105%
- remaining activity at 3.75 µM ([2]; Well no.=5134): 104%
